Test system: DsBBS2
Test: HPLC of resveratrol formed, nonlinear curve fitting
Assay type: biochemical, Dendrobium sinense
Conditions: 0.5 mM malonyl-CoA, 50 mM Hepes, 37 °C, 30 min; p-coumaroyl-CoA 0.5-5.0 mM

Km: 2.05 ± 0.31 mM
SMILES: CC(C)(COP(=O)(O)OP(=O)(O)OC[C@H]1O[C@@H](n2cnc3c(N)ncnc32)[C@H](O)[C@@H]1OP(=O)(O)O)[C@@H](O)C(=O)NCCC(=O)NCCSC(=O)/C=C/c1ccc(O)cc1 [p-coumaroyl-CoA]
